Measured values taken from patent US8969516B2, “Method of hydrolysis of peptide bond” (priority 2006, dated 2015).

Columns and labels:
[1] = Quantitative kinetic studies of Ni^2+ dependent peptide hydrolysis by HPLC; type: physicochemical; conditions: 1 mM peptide, 1 mM Ni^2+, 45° C., pH 8.2 (20 mM Tris)
Experimental: The title octapeptides were synthesised according to a typical Fmoc protocol (Fields, Meth. Enzymol. Vol. 289). The list of variable BXHZ sequences is given in Table 2, along with 1st order rate constants determined at 45° C., pH 8.2 (20 mM Tris buffer) for 1 mM peptide and Ni^2+ concentrations. […] The substrate and product peaks were identified by MALDI-TOF MS.

[2] = system: proteinase; assay: Activity of SPI2 released from the recombinant polypeptide (Chavira et al.); type: biochemical; conditions: after Ni^2+ cleavage on Ni-NTA-agarose, 100 mM Hepes pH 8.2, 50° C., 19 hours
Experimental: The recombinant polypeptide from Example 4 (100 μl of a 140 μM solution) was loaded on 200 μl of Ni-NTA-agarose (Invitrogen), according to the manufacturer's instruction, and incubated in 100 mM Hepes buffer, pH 8.2 with 5 mM Ni^2+ at 50° C. without shaking. The incubation buffer (500 μl) was removed after 19 hours. Then the unreacted polypeptide and the cleaved off SRHW-AP-HHHHHH domain were washed from the column with two 400 μl portions of 200 mM imidazole, pH 7.4. The samples were analyzed by HPLC under conditions given in Example 4. FIG. 4 presented chromatograms of the control recombinant polypeptide, incubation buffer and both wash fractions. Masses of polypeptides were measured by ESI-MS. The yield of purified SPI2 was 88%. SPI2 obtained from this procedure was fully active, as determined according to […] et al., Anal. Biochem. 1984, 136, 446-450.

| Substance | k ± S.D., 1st order rate constant for the hydrolysis [1] [s^−1 · 10^−5] | activity of SPI2 obtained from cleavage on solid support [2] |
| --- | --- | --- |
| Ac-GASRHWKFL-NH2 [-SRHW-] | 28.8 ± 0.8 |  |
| Ac-GASWHIKFL-NH2 [-SWHI-] | 3 ± 1 |  |
| Ac-GATHHKKFL-NH2 [-THHK-] | 1.01 ± 0.09 |  |
| SPI2: single domain Kazal type proteinase inhibitor, released from (SPI2)-SRHW-AP-HHHHHH recombinant polypeptide |  | fully active |
